Experimental data taken from article PMC11765572 (International Journal of Molecular Sciences, 2025).

Test system: SARS-CoV-2 (BetaCov/Belgium/GHB-03021/2020 B.1 lineage A)

With `CNC(=O)c1cc(Br)cc([N+](=O)[O-])c1N[C@@H]1CCCC[C@@H]1NC(=O)c1cccnc1` [Compound A5, N-((1S,2R)-2-((4-bromo-2-(methylcarbamoyl)-6-nitrophenyl)amino)cyclohexyl)nicotinamide] the “SI (Selection Index) = CC50/EC50” value was >49.7.
In the case of `CNC(=O)c1cc(Br)cc([N+](=O)[O-])c1N[C@@H]1CCCC[C@@H]1NC(=O)c1cncc(O)c1` [Compound A6, N-((1S,2R)-2-((4-bromo-2-(methylcarbamoyl)-6-nitrophenyl)amino)cyclohexyl)-5-hydroxynicotinamide], the “SI (Selection Index) = CC50/EC50” value is reported as >16.5.
